Test results taken from patent publication US9993553B2, “Methods and compositions for targeted release of molecules from nanoscale carriers” (The Regents of the University of California, priority 2013, dated 2018).
{6-FAM} = 6-carboxyfluorescein dye; {BHQ-1} = Black Hole Quencher-1

Tests used:
[1] = X-ray radiation cleavage of 6-FAM labelled DNA, fluorescence spectroscopy, with DMSO as hydroxyl radical scavenger; format: physicochemical; details: 100 Gy
Method: X-ray radiation studies were performed, using DMSO as a hydroxyl radical scavenger at concentrations from 0-100 mM. In a 24-well plate, 400 μL of purified 6-FAM-DNA-AuNPs were mixed with 400 μL of 2×DMSO solution, or PBS and the samples were irradiated with X-rays. After radiation, the AuNPs were removed from solution by centrifugation (13,000 rpm, 15 min) and supernatant fluorescence was measured (Excitation at 490 nm and Emission at 514 nm). Non-radiated controls were identically prepared and measured.
6-FAM has a high fluorescence yield (>80%) and high quenching when attached to AuNPs. The cleavage via X-ray irradiation was studied with optical fluorescence spectroscopy.
Black Hole Quencher®-1 DNA, coupled to 6-FAM, was purchased from IDT (6-FAM-5′-[…]-3′-BHQ-1®). It was irradiated with DMSO at concentrations from 0-100 mM in 24 well plates, and the fluorescence from cleaved DNA was measured. […] X-ray radiated and cleaved 6-FAM molecules were incubated with MCF-7 cells for 4 hours.

MCF-7 cells = test: Clonogenic assay with X-ray irradiation; format: cell-based
Method: MCF-7 cells were plated at a rate of 50,000 cells/ml in a 24-well cell culture plate. They were then incubated with DOX, DOX-DNA, and DOX-DNA-AuNPs for 12 hours, and then irritated with 0, 2, 5, and 10 Gy X-rays. The cells were then counted, using a hemocytometer, and replated in a 6 well plate at 1000 cell per well for the 0 and 2 Gy dose; 3000 cells for the 5 Gy; and 9000 for the 10 Gy. The plates were incubated for 14 days, and then fixed with gluteraldhyde and stained with crystal violet. The colonies with 50 or more cells were then counted.

Q: Which “Effect of DMSO (hydroxyl radical scavenger) on cleavage / fluorescence” value ([1]; DMSO up to 100 mM) does the source give for “6-FAM-5′-TTAGGGTTAGGG-3′-BHQ-1® (DNA, 5' {6-FAM}, 3' {BHQ-1}, backbone not given here) [Q-DNA-6-FAM, Black Hole Quencher-1 DNA coupled to 6-FAM, purchased from IDT]” here?
A: significantly reduced the fluorescence

Q: And the “Cleavage after X-ray radiation” value ([1]; zero DMSO)?
A: 25%

Q: What about the “Cleavage (fluorescence) after X-ray radiation in the presence of AuNPs” value ([1]; zero DMSO, mixture with AuNPs, no covalent conjugation) of the same molecule?
A: 4%

Q: Which results are given for `COc1cccc2c1C(=O)c1c(O)c3c(c(O)c1C2=O)C[C@@](O)(C(=O)CO)C[C@@H]3O[C@H]1C[C@H](N)[C@H](O)[C@H](C)O1` [DOX, doxorubicin]?
A: Measured cell survivability (MCF-7 cells; 0 Gy): 0.81 ± .01; Measured cell survivability (MCF-7 cells; 2 Gy): 0.61 ± .05; Measured cell survivability (MCF-7 cells; 5 Gy): 0.28 ± .02; Measured cell survivability (MCF-7 cells; 10 Gy): 0.07 ± .002; Survivability of MCF-7 cells (MCF-7 cells; DOX alone, no radiation): 80%; Toxicity to MCF-7 cells (MCF-7 cells; DOX alone, no radiation, 24 million free DOX in the cell): about 20%
